Results on eleven molecules are retold here after patent US9657348B2, “Method of screening compounds for the treatment of diabetes” (ATROGI AB, priority 2013, dated 2017).

Entries after “also recorded” stand apart in the source; their conditions may differ. Starred links: 1 amine or outer side, 2 acyl side, 3 side chain; linkers in the order of their positions; H or OH if unused. Positions of bridges follow the written chain, without caps; N, C: chain ends. Non-standard residues stand in square brackets, D forms with d. Residues, ends and D or L forms follow the SMILES beside them. Chains are numbered I, II in the order given. Actinocin(9to1) = Cc1c2oc3c(C)ccc(C(=O)[*:1])c3nc-2c(C(=O)[*:2])c(N)c1=O; NMeV = CN[C@H](C(=O)O)C(C)C; Sar = CNCC(=O)O

One data set relates to soleus muscle. Briefly: 3-O-methylglucose transport (glucose uptake) in isolated soleus muscle. The class given is cell-based. Conditions: soleus muscle from rat; FIG. 1A. The procedure:
(§1) Soleus muscles were dissected from Sprague-Dawley rats and suspended in Krebs-Henseleit bicarbonate (KHB) buffer (118.5 mM NaCl, 4.7 mM KCl, 1.2 mM KH2PO4, 25 mM NaHCO3, 2.5 mM CaCl2, 1.2 mM MgSO4, 5 mM HEPES) in organ baths containing 30 ml KHB containing 5 mM glucose and 15 mM mannitol, bubbled with 95% O2/5% CO2 (pH 7.4) and maintained at 37° C. […] Muscles were rinsed with KHB (20 mM mannitol) for 10 min, then incubated in KHB (8 mM 3-O-methylglucose and 12 mM mannitol with 438 μCi/mmol 3-O-methyl[3H]glucose (80.2 Ci/mmol; PerkinElmer) and 42 μCi/mmol [^14C] mannitol (58.8 mCi/mmol; PerkinElmer, USA)) for 12 min. Muscles were then rinsed with PBS and frozen in liquid nitrogen, weighed and dissolved in 1 mL of 0.5M NaOH at 60° C. ^3H and ^14C were measured by liquid scintillation counting. Total muscle 3-O-methylglucose and extracellular space were measured as described previously (Zierath 1995). Intracellular 3-O-methylglucose accumulation was calculated by: (Total muscle 3-O-methylglucose)−(extracellular 3-O-methylglucose)=intracellular 3-O-methylglucose. This was then expressed as a rate of 3-O-methylglucose transport per mL of intracellular water per hour. Glucose uptake was measured in L6 skeletal muscle cells and in human skeletal muscle cells (SKMC) grown in 12-well plates using ^3H-2-deoxyglucose as previously described (Nevzorova et al. 2002) with minor modifications. […]

The test system of data set [1] is human skeletal muscle cells (SKMC). Briefly: 3H-2-deoxyglucose uptake in human skeletal muscle cells. The class given is cell-based. Particulars: FIG. 1C. As to the method: as §1
Another data set concerns GLUT4. Briefly: GLUT4 translocation to plasma membrane by immunocytochemistry in L6 cells. The class given is cell-based, rat. Particulars: non-permeabilized L6 myoblasts; 1 μM, 2 h.
Another data set concerns cAMP. Briefly: cAMP content over time in L6 myotubes. The class given is cell-based, rat. Conditions: for maximum difference in cAMP versus cells not brought into contact (Δ1): L6 myotubes. As to the method:
Further, to determine whether contacting BRL37344 causes a response of a classical secondary messenger in cells with which it is brought into contact, the concentration of cAMP was measured during a period of time. As a reference, cAMP in cells not brought into contact was measured. In FIG. 9A the difference Δ1 for BRL37344 is plotted, and the maximum difference is about 8 pmol. […] The calculated value of r″ therefore is 8/45=0.18.

The test system of data set [2] is L6 skeletal muscle cells. As to the kind of experiment: 3H-2-deoxyglucose uptake in L6 myotubes, with or without inhibitors or GRK2 siRNA. The class given is cell-based, rat. Particulars: for glucose uptake / effect of GRK2 knock-down with siRNA on glucose uptake stimulated by the substance / basal glucose uptake in presence of inhibitor / insulin- and GPCR-stimulated glucose uptake in presence of inhibitor: L6 myotubes; for glucose uptake: stimulation with drug; for effect of GRK2 knock-down with siRNA on glucose uptake stimulated by the substance: FIG. 7, FIG. 9B; for basal glucose uptake in presence of inhibitor / insulin- and GPCR-stimulated glucose uptake in presence of inhibitor: inhibitor pretreatment 30 min; for insulin- and GPCR-stimulated glucose uptake in presence of inhibitor: then insulin or GPCR stimulation. As to the method: Cells were grown as in Example 1. Cells were pretreated with inhibitors for 30 min and then exposed to GPCR stimulation.
GRK2 siRNA constructs (Sigma Aldrich) as well as control sequence was transfected into L6 mytoubes by electroporation. Differentiated L6 cells were detached by washing in PBS followed by 5 minutes of incubation in trypsin/EDTA (0.1% trypsin w/v, 0.02% EDTA w/v). The detached cells were transferred to Eppendorf tubes and centrifugation at 1000×g for 3 minutes was performed before supernatant was removed and the cells were resuspended in 20 μl/well of SE Cell Line Nucleofector® (Lonza) and 100 nM siRNA. Cells were transferred to a 16-well microcuvette plate (Lonza) and were electroporated in a 4D-Nucleofector® (Lonza). 80 μl of pre-warmed RPMI1640 medium were added to the each microcuvette well for 5 min before the cells were transferred to the Eppendorf tubes containing culture media. Cells were serum starved over night and glucose uptake measured 24 hours after transfection.
Glucose uptake was detected by ^3H-2-dexoy-glucose as previously described (Nevzorova 2002), with minor modifications. Differentiated L6-myotubes were serum-starved over night in media containing 0.5% fatty-acid free BSA and stimulated with agonists for totally 2 h, unless otherwise stated. Cells were exposed to 50 nM ^3H-2-dexoy-glucose in glucose free media for 6-10 minutes before the experiment was ended by washing the cells in ice-cold PBS or glucose free media. Cells were lysed in 0.2 M NaOH for 1 h in 60° C., mixed with scintillation buffer (Emulsifier Safe, Perkin Elmer) and radioactivity detected in a β-counter (Tri-Carb 2800TR, Perkin Elmer).

In data set [3] the test system is Human prostate carcinoma (22rv1) cells. As to the kind of experiment: Glucose uptake in 22rv1 cells with or without GRK2 siRNA. The class given is cell-based. Particulars: FIG. 8. The procedure: Human prostate carcinoma (22rv1) cells were grown for 7 days in RPMI-1640 medium. […] At day 7, 22rv1 cells were treated with siRNA. siRNA constructs GRK2 (Sigma Aldrich) as well as control sequence were transfected into 22rv1 cells by lipofectamine (Life Technologies Corp.) according to the manufacturer's protocol. Cells were serum starved over night and glucose uptake was measured 24 hours after transfection. Cells were stimulated with drugs for totally 2 h, unless otherwise stated.

Data set [4] concerns L6 skeletal muscle cells. Briefly: Cell viability of L6 cells under transcription/translation inhibitor.

Turning to `CC(C)NCC(O)c1ccc(O)c(O)c1` (racemic) [isoproterenol, (RS)-4-[1-hydroxy-2-(isopropylamino)ethyl]benzene-1,2-diol], the glucose uptake result (in the data set with soleus muscle; in data set [1]) was “leads to glucose uptake” throughout. In the data set with GLUT4, the “GLUT4 recruitment to the plasma membrane” value was “GLUT4 recruitment to the plasma membrane to the same extent”. Further, the “maximum difference in cAMP versus cells not brought into contact (Δ1)” value in the data set on cAMP (FIG. 9A) is “about 45 pmol”.
In the case of `C[C@H](Cc1ccc(OCC(=O)O)cc1)NC[C@H](O)c1cccc(Cl)c1` (relative stereo) [BRL37344, (±)-(R*,R*)-[4-[2-[[2-(3-chlorophenyl)-2-hydroxy-ethyl]amino]propyl]phenoxy]acetic acid], in the data set on L6 skeletal muscle cells [2] ((untransfected) cells expressing GRK2, FIG. 9B), the “glucose uptake in % of the glucose uptake of the same cells brought into contact with vehicle only” value is on record as 175%. Further, in the data set on L6 skeletal muscle cells [2], the glucose uptake result is recorded as “stimulate glucose uptake” and the “effect of GRK2 knock-down with siRNA on glucose uptake stimulated by the substance” value is “significantly inhibited”. The “glucose uptake in % of vehicle” value with L6 skeletal muscle cells [2] (transfected (GRK2 siRNA) cells not expressing GRK, FIG. 9B) stood at 125%. The “ratio r″ (cAMP response of compound / cAMP response of isoproterenol)” value in the data set on cAMP (8/45) is recorded as 0.18. In the data set with cAMP (FIG. 9A), the “maximum difference in cAMP versus cells not brought into contact (Δ1)” value is “about 8 pmol”. For the same molecule, the “contents of cAMP over basal” value with cAMP (skeletal muscle cells (L6 myotubes), all time points, FIG. 9A) is on record as “did not significantly increase”.
As for `CS(=O)(=O)Nc1c(O)ccc2c1CCCC2C1=NCCN1` (centres unmarked) [A61603], the “effect of GRK2 down-regulation with siRNA on glucose uptake stimulated by the substance” value (“effect of GRK2 down-regulation” for short) in data set [3] is recorded as “inhibited”.
On to `O=C(CCc1ccc(O)cc1)c1c(O)cc(O)cc1O` [Phloretin, phloretin], for which, in the data set on L6 skeletal muscle cells [2], the “basal glucose uptake in presence of inhibitor” value is on record as “blocked basal glucose uptake”; the “insulin- and GPCR-stimulated glucose uptake in presence of inhibitor” value was “significantly reduced”.
On to `Cc1c2oc3c(C)ccc(C(=O)N[C@@H]4C(=O)N[C@H](C(C)C)C(=O)N5CCC[C@H]5C(=O)N(C)CC(=O)N(C)[C@@H](C(C)C)C(=O)O[C@@H]4C)c3nc-2c(C(=O)N[C@@H]2C(=O)N[C@H](C(C)C)C(=O)N3CCC[C@H]3C(=O)N(C)CC(=O)N(C)[C@@H](C(C)C)C(=O)O[C@@H]2C)c(N)c1=O` [actinomycin, Actinomycin D] (I: T[dV]P[Sar][NMeV] / II: T[dV]P[Sar][NMeV]; ester I:1-I:C, II:1-II:C; linker I:N-II:N via Actinocin(9to1)), for which, in the data set on L6 skeletal muscle cells [2], the “basal glucose uptake in presence of inhibitor” value is recorded as “did not significantly affect”; the “insulin- and GPCR-stimulated glucose uptake in presence of inhibitor” value is “did not significantly affect”. Further, the cell viability entry in the data set on L6 skeletal muscle cells [4] is given as “did not significantly affect”.
For `C[C@@H]1C[C@@H]([C@H](O)CC2CC(=O)NC(=O)C2)C(=O)[C@@H](C)C1` [cyclohexamide], in the data set on L6 skeletal muscle cells [2], the “basal glucose uptake in presence of inhibitor” value was “did not affect”; the “insulin- and GPCR-stimulated glucose uptake in presence of inhibitor” value is recorded as “did not affect”.
On to `C=C1[C@@H](C)[C@H]2[C@H](Cc3ccccc3)NC(=O)[C@]23OC(=O)/C=C/[C@H](O)CCC[C@@H](C)C/C=C/[C@H]3[C@@H]1O` [cytochalasin B], for which, in the data set with L6 skeletal muscle cells [2], the “basal glucose uptake in presence of inhibitor” value is recorded as “reduced basal glucose uptake”; the “insulin- and GPCR-stimulated glucose uptake in presence of inhibitor” value is recorded as “reduced”.
On the same counts, the results for `CC(C)(C)NC(=O)[C@@H]1CN(Cc2cccnc2)CCN1C[C@@H](O)C[C@@H](Cc1ccccc1)C(=O)N[C@H]1c2ccccc2C[C@H]1O` [indinavir] are “blocked basal glucose uptake” and “significantly reduced”.
With `NC[C@H](O)c1ccc(O)c(O)c1` [norepinephrine (NA), norepinephrine], the “effect of GRK2 down-regulation” value in data set [3] is on record as “inhibited”.
The same measure, in the same setting: for `Cc1cc(C(C)(C)C)c(O)c(C)c1CC1=NCCN1` [oxymetazoline] the value was “inhibited”.
Regarding insulin, in the data set with L6 skeletal muscle cells [2], the glucose uptake result is recorded as “increased glucose uptake” and the “effect of GRK2 knock-down with siRNA on glucose uptake stimulated by the substance” value was “could not be blocked; also recorded: does not inhibit”. Moreover, the “GLUT4 recruitment to the plasma membrane” value in the data set with GLUT4 was “GLUT4 recruitment to the plasma membrane to the same extent”. Also, in data set [3], the “effect of GRK2 down-regulation” value is “does not inhibit”.
